# Experimental data as given in US20040006070A1, “Intraspinal continuous infusion of midazolam hydrochloride for the treatment of pain” (priority 2002, published 2004).
# Where a name gives a salt, the structure may show the parent alone.
# Test: Bloodwork: complete blood count, electrolytes, extended blood chemistry
# Assay type: in vivo, sheep
# Procedure: Indirect blood pressure, pulse recording, pain testing (mechanical stimulus device, cold and warm water baths see description in procedure) and weight were taken on days 1, 3, 7, 15, 22, 29, 36, and 43. Venous blood samples (15 ml drawn from the jugular vein with Vacutainer brand blood collection tubes) for complete blood count, electrolytes, and extended blood chemistry were drawn on days 1, 15, and 43 (mild procedure only light hand restraint necessary).
# [1] = sheep Elmer Fudd #437, 5 mg/day, Day 43
# [2] = sheep Leghorn II #815, 15 mg/day, Baseline
# [3] = sheep Leghorn II #815, 15 mg/day, Day 1
# [4] = sheep Leghorn II #815, 15 mg/day, Day 15
# [5] = sheep Leghorn II #815, 15 mg/day, Day 43
# [6] = sheep Petunia #439, 15 mg/day, Baseline
# [7] = sheep Petunia #439, 15 mg/day, Day 1
# [8] = sheep Petunia #439, 15 mg/day, Day 15
# [9] = sheep Petunia #439, 15 mg/day, Day 43
# [10] = sheep Porky #402, 5 mg/day, Baseline
# [11] = sheep Porky #402, 5 mg/day, Day 1
# [12] = sheep Porky #402, 5 mg/day, Day 15
# [13] = sheep Porky #402, 5 mg/day, Day 43
compound,measurement,setting,value
"Cc1ncc2n1-c1ccc(Cl)cc1C(c1ccccc1F)=NC2 [Midazolam, midazolam hydrochloride]",CPK,[1],64 U/L
same,Cholesterol,[1],90 mg/dL
same,Creatinine,[1],1.3 mg/dL
same,Differential Count: Atyp lym,[1],0%
same,Differential Count: Bands,[1],0%
same,Differential Count: Eosin,[1],2%
same,Differential Count: Lymph,[1],38%
same,Differential Count: Mono,[1],1%
same,Differential Count: Seg,[1],59%
same,Gamma GT,[1],48 U/L
same,Glucose,[1],83 mg/dL
same,Hct,[1],34.6%
same,Hgb,[1],11.8 g/dL
same,K+,[1],4.3 mEq/l
same,MCH,[1],10.8 pg
same,MCHC,[1],34.2 G/dl
same,MCV,[1],31.7 fL
same,Na+,[1],147 mEq/l
same,Phos,[1],6.2 mg/dL
same,Platlet Count,[1],540000 µL⁻¹
same,RBC,[1],1.09e+07 µL⁻¹
same,Total Bili,[1],0.1 mg/dL
same,Total Prot,[1],6.6 g/dL
same,WBC,[1],4650 µL⁻¹
same,Differential Count: Atyp lym,[2],0%
same,Differential Count: Baso,[2],0%
same,Differential Count: Eosin,[2],4%
same,Differential Count: Lymph,[2],79%
same,Differential Count: Mono,[2],3%
same,Differential Count: Seg,[2],14%
same,Hct,[2],36.9%
same,Hgb,[2],12.5 g/dL
same,MCH,[2],10.7 pg
same,MCHC,[2],33.9 G/dl
same,MCV,[2],31.5 fL
same,Platlet Count,[2],516000 µL⁻¹
same,RBC,[2],1.17e+07 µL⁻¹
same,WBC,[2],6730 µL⁻¹
same,ALT,[3],14 U/L
same,AST,[3],117 U/L
same,Albumin,[3],3.5 g/dL
same,Alk Phos,[3],117 U/L
same,BUN,[3],19 mg/dL
same,CPK,[3],94 U/L
same,Cholesterol,[3],68 mg/dL
same,Creatinine,[3],0.9 mg/dL
same,Differential Count: Atyp lym,[3],0%
same,Differential Count: Baso,[3],0%
same,Differential Count: Eosin,[3],2%
same,Differential Count: Lymph,[3],58%
same,Differential Count: Mono,[3],2%
same,Differential Count: Seg,[3],28%
same,Gamma GT,[3],80 U/L
same,Glucose,[3],80 mg/dL
same,Hct,[3],34.7%
same,Hgb,[3],11.8 g/dL
same,K+,[3],5.0 mEq/l
same,MCH,[3],10.6 pg
same,MCHC,[3],34.0 G/dl
same,MCV,[3],31.1 fL
same,Na+,[3],146 mEq/l
same,Phos,[3],8.3 mg/dL
same,Platlet Count,[3],828000 µL⁻¹
same,RBC,[3],1.11e+07 µL⁻¹
same,Total Bili,[3],0 mg/dL
same,Total Prot,[3],6.3 g/dL
same,WBC,[3],6070 µL⁻¹
same,Differential Count: Atyp lym,[4],0%
same,Differential Count: Baso,[4],0%
same,Differential Count: Eosin,[4],16%
same,Differential Count: Lymph,[4],59%
same,Differential Count: Mono,[4],1%
same,Differential Count: Seg,[4],24%
same,Hct,[4],38.0%
same,Hgb,[4],12.4 g/dL
same,MCH,[4],10.4 pg
same,MCHC,[4],32.7 G/dl
same,MCV,[4],31.8 fL
same,Platlet Count,[4],861000 µL⁻¹
same,RBC,[4],1.2e+07 µL⁻¹
same,WBC,[4],6640 µL⁻¹
same,Differential Count: Atyp lym,[5],0%
same,Differential Count: Baso,[5],1%
same,Differential Count: Eosin,[5],2%
same,Differential Count: Lymph,[5],77%
same,Differential Count: Mono,[5],2%
same,Differential Count: Seg,[5],18%
same,Hct,[5],36.4%
same,Hgb,[5],12.3 g/dL
same,MCH,[5],10.5 pg
same,MCHC,[5],33.7 G/dl
same,MCV,[5],31.2 fL
same,Platlet Count,[5],345000 µL⁻¹
same,RBC,[5],1.17e+07 µL⁻¹
same,WBC,[5],6110 µL⁻¹
same,Differential Count: Atyp lym,[6],0%
same,Differential Count: Bands,[6],0%
same,Differential Count: Eosin,[6],130%
same,Differential Count: Lymph,[6],53%
same,Differential Count: Mono,[6],7%
same,Differential Count: Seg,[6],27%
same,Hct,[6],41.1%
same,Hgb,[6],14.0 g/dL
same,MCH,[6],11.5 pg
same,MCHC,[6],34.2 G/dl
same,MCV,[6],33.6 fL
same,Platlet Count,[6],489000 µL⁻¹
same,RBC,[6],1.22e+07 µL⁻¹
same,WBC,[6],3120 µL⁻¹
same,ALT,[7],0 U/L
same,AST,[7],102 U/L
same,Albumin,[7],3.6 g/dL
same,Alk Phos,[7],43 U/L
same,BUN,[7],10 mg/dL
same,CPK,[7],84 U/L
same,Cholesterol,[7],60 mg/dL
same,Creatinine,[7],1.1 mg/dL
same,Differential Count: Atyp lym,[7],2%
same,Differential Count: Bands,[7],1%
same,Differential Count: Eosin,[7],1%
same,Differential Count: Lymph,[7],50%
same,Differential Count: Mono,[7],6%
same,Differential Count: Seg,[7],40%
same,Gamma GT,[7],84 U/L
same,Glucose,[7],71 mg/dL
same,Hct,[7],42.4%
same,Hgb,[7],14.4 g/dL
same,K+,[7],5.4 mEq/l
same,MCH,[7],11.3 pg
same,MCHC,[7],33.9 G/dl
same,MCV,[7],33.3 fL
same,Na+,[7],152 mEq/l
same,Phos,[7],7.9 mg/dL
same,RBC,[7],1.27e+07 µL⁻¹
same,Total Bili,[7],0 mg/dL
same,Total Prot,[7],6.6 g/dL
same,WBC,[7],2920 µL⁻¹
same,Platlet Count,"sheep Petunia #439, 15 mg/day, Day 1, platelet clumps observed",715• ×10^3/μl
same,ALT,[8],1 U/L
same,AST,[8],94 U/L
same,Albumin,[8],4.0 g/dL
same,Alk Phos,[8],29 U/L
same,BUN,[8],14 mg/dL
same,CPK,[8],105 U/L
same,Cholesterol,[8],61 mg/dL
same,Creatinine,[8],1.2 mg/dL
same,Differential Count: Atyp lym,[8],1%
same,Differential Count: Bands,[8],0%
same,Differential Count: Eosin,[8],2%
same,Differential Count: Lymph,[8],46%
same,Differential Count: Mono,[8],3%
same,Differential Count: Seg,[8],48%
same,Gamma GT,[8],74 U/L
same,Glucose,[8],93 mg/dL
same,Hct,[8],30.8%
same,Hgb,[8],10.1 g/dL
same,K+,[8],4.3 mEq/l
same,MCH,[8],11.2 pg
same,MCHC,[8],32.7 G/dl
same,MCV,[8],34.2 fL
same,Na+,[8],150 mEq/l
same,Phos,[8],4.9 mg/dL
same,RBC,[8],9.02e+06 µL⁻¹
same,Total Bili,[8],0.3 mg/dL
same,Total Prot,[8],7.2 g/dL
same,WBC,[8],3600 µL⁻¹
same,Platlet Count,"sheep Petunia #439, 15 mg/day, Day 15, platelet clumps observed",606• ×10^3/μl
same,ALT,[9],0 U/L
same,AST,[9],97 U/L
same,Albumin,[9],3.6 g/dL
same,Alk Phos,[9],49 U/L
same,BUN,[9],17 mg/dL
same,CPK,[9],91 U/L
same,Cholesterol,[9],65 mg/dL
same,Creatinine,[9],1.2 mg/dL
same,Differential Count: Atyp lym,[9],1%
same,Differential Count: Bands,[9],0%
same,Differential Count: Eosin,[9],7%
same,Differential Count: Lymph,[9],47%
same,Differential Count: Mono,[9],4%
same,Differential Count: Seg,[9],41%
same,Gamma GT,[9],77 U/L
same,Glucose,[9],68 mg/dL
same,Hct,[9],36.0%
same,Hgb,[9],11.8 g/dL
same,K+,[9],5.2 mEq/l
same,MCH,[9],11.2 pg
same,MCHC,[9],32.7 G/dl
same,MCV,[9],34.1 fL
same,Na+,[9],146 mEq/l
same,Phos,[9],6.2 mg/dL
same,Platlet Count,[9],356000 µL⁻¹
same,RBC,[9],1.05e+07 µL⁻¹
same,Total Bili,[9],0.1 mg/dL
same,Total Prot,[9],6.3 g/dL
same,WBC,[9],2300 µL⁻¹
same,Differential Count: Atyp lym,[10],0%
same,Differential Count: Bands,[10],0%
same,Differential Count: Eosin,[10],2%
same,Differential Count: Lymph,[10],48%
same,Differential Count: Mono,[10],2%
same,Differential Count: Seg,[10],48%
same,Hct,[10],40.7%
same,Hgb,[10],13.5 g/dL
same,MCH,[10],12.4 pg
same,MCHC,[10],33.2 g/dL
same,MCV,[10],37.2 fL
same,Platlet Count,[10],215000 µL⁻¹
same,RBC,[10],1.09e+07 µL⁻¹
same,WBC,[10],3530 µL⁻¹
same,ALT,[11],3 U/L
same,AST,[11],67 U/L
same,Albumin,[11],3.5 g/dL
same,Alk Phos,[11],37 U/L
same,BUN,[11],10 mg/dL
same,CPK,[11],73 U/L
same,Cholesterol,[11],71 mg/dL
same,Creatinine,[11],1.3 mg/dL
same,Differential Count: Atyp lym,[11],0%
same,Differential Count: Bands,[11],0%
same,Differential Count: Eosin,[11],1%
same,Differential Count: Lymph,[11],41%
same,Differential Count: Mono,[11],5%
same,Differential Count: Seg,[11],53%
same,Gamma GT,[11],46 U/L
same,Glucose,[11],72 mg/dL
same,Hct,[11],40.4%
same,Hgb,[11],13.4 g/dL
same,K+,[11],4.6 mEq/l
same,MCH,[11],12.3 pg
same,MCHC,[11],33.1 g/dL
same,MCV,[11],37.1 fL
same,Na+,[11],153 mEq/l
same,Phos,[11],7.5 mg/dL
same,Platlet Count,[11],319000 µL⁻¹
same,RBC,[11],1.09e+07 µL⁻¹
same,Total Bili,[11],0 mg/dL
same,Total Prot,[11],6.8 g/dL
same,WBC,[11],3470 µL⁻¹
same,ALT,[12],8 U/L
same,AST,[12],69 U/L
same,Albumin,[12],3.9 g/dL
same,Alk Phos,[12],33 U/L
same,BUN,[12],14 mg/dL
same,CPK,[12],94 U/L
same,Cholesterol,[12],3.5 mg/dL
same,Creatinine,[12],1.2 mg/dL
same,Differential Count: Atyp lym,[12],0%
same,Differential Count: Bands,[12],0%
same,Differential Count: Eosin,[12],1%
same,Differential Count: Lymph,[12],33%
same,Differential Count: Mono,[12],5%
same,Differential Count: Seg,[12],61%
same,Gamma GT,[12],74 U/L
same,Glucose,[12],89 mg/dL
same,Hct,[12],31.4%
same,Hgb,[12],10.2 g/dL
same,K+,[12],4.2 mEq/l
same,MCH,[12],12.3 pg
same,MCHC,[12],32.3 g/dL
same,MCV,[12],38.2 fL
same,Na+,[12],150 mEq/l
same,Phos,[12],48 mg/dL
same,Platlet Count,[12],173000 µL⁻¹
same,RBC,[12],8.23e+06 µL⁻¹
same,Total Bili,[12],0.2 mg/dL
same,Total Prot,[12],7.4 g/dL
same,WBC,[12],3170 µL⁻¹
same,ALT,[13],13 U/L
same,AST,[13],59 U/L
same,Albumin,[13],3.5 g/dL
same,Alk Phos,[13],55 U/L
same,BUN,[13],17 mg/dL
same,CPK,[13],93 U/L
same,Cholesterol,[13],62 mg/dL
same,Creatinine,[13],1.3 mg/dL
same,Differential Count: Atyp lym,[13],1%
same,Differential Count: Bands,[13],0%
same,Differential Count: Eosin,[13],5%
same,Differential Count: Lymph,[13],40%
same,Differential Count: Mono,[13],5%
same,Differential Count: Seg,[13],49%
same,Gamma GT,[13],42 U/L
same,Glucose,[13],61 mg/dL
same,Hct,[13],39.2%
same,Hgb,[13],12.2 g/dL
same,K+,[13],4.8 mEq/l
same,MCH,[13],12.0 pg
same,MCHC,[13],31.8 g/dL
same,MCV,[13],37.6 fL
same,Na+,[13],147 mEq/l
same,Phos,[13],5.9 mg/dL
same,Platlet Count,[13],214000 µL⁻¹
same,RBC,[13],1.04e+07 µL⁻¹
same,Total Bili,[13],0.1 mg/dL
same,Total Prot,[13],6.4 g/dL
same,WBC,[13],3590 µL⁻¹
